ChEMBL document CHEMBL1135088, “Minimal structural requirements for agonist activity of PAR-2 activating peptides” (Bioorg Med Chem Lett, 2002)
Non-standard residues stand in square brackets, D forms with d. Residues, ends and D or L forms follow the SMILES beside them. *: point of attachment. Arg(NO2) = N=C(NCCC[C@H](N)C(=O)O)N[N+](=O)[O-]; Bz = O=C(c1ccccc1)*

Columns and labels:
Rattus norvegicus [1] = organism: Rattus norvegicus; assay: In vitro vasorelaxant activity in male wistar rat thoracic aorta by classical rat aorta relaxation assay; n.a.=not active up to a concentration of 3e-4 M; format: functional
Rattus norvegicus [2] = organism: Rattus norvegicus; assay: In vitro vasorelaxant activity in male wistar rat thoracic aorta by classical rat aorta relaxation assay; format: functional

Compound | EC50 (Rattus norvegicus [1]) | EC50 (Rattus norvegicus [2])
CC(C)C[C@H](NC(=O)[C@H](CCC/N=C(\N)N[N+](=O)[O-])NC(=O)C1CCCCC1)C(N)=O | Not Active | 
COc1ccc(C(=O)N[C@@H](CCC/N=C(\N)N[N+](=O)[O-])C(=O)N[C@@H](CC(C)C)C(N)=O)cc1 |  | 69 µM
CC(C)C[C@H](NC(=O)[C@H](CCC/N=C(\N)N[N+](=O)[O-])NC(=O)c1ccc(C(F)(F)F)cc1)C(N)=O | Not Active | 
CC(C)C[C@H](NC(=O)[C@H](CCC/N=C(\N)N[N+](=O)[O-])NC(=O)c1ccc(Cl)cc1)C(N)=O | Not Active | 
CC(C)C[C@H](NC(=O)[C@H](CCC/N=C(\N)N[N+](=O)[O-])NC(=O)c1ccc(OC(F)(F)F)cc1)C(N)=O |  | 20 µM
CC(C)C[C@H](NC(=O)[C@H](CCC/N=C(\N)N[N+](=O)[O-])NC(=O)c1ccc([N+](=O)[O-])cc1)C(N)=O | Not Active | 
CC(C)C[C@H](NC(=O)[C@H](CCC/N=C(\N)N[N+](=O)[O-])NS(=O)(=O)c1ccccc1)C(N)=O | Not Active | 
CSc1ccc(C(=O)N[C@@H](CCC/N=C(\N)N[N+](=O)[O-])C(=O)N[C@@H](CC(C)C)C(N)=O)cc1 | Not Active | 
CC(C)C[C@H](NC(=O)[C@H](CCC/N=C(\N)N[N+](=O)[O-])NC(=O)c1ccc(C#N)cc1)C(N)=O | Not Active | 
CC(=O)N[C@@H](CCC/N=C(\N)N[N+](=O)[O-])C(=O)N[C@@H](CC(C)C)C(N)=O (Ac-[Arg(NO2)]-Leu-NH2) | Not Active | 
CC(C)C[C@H](NC(=O)[C@H](CCC/N=C(\N)N[N+](=O)[O-])NC(=O)c1ccccc1)C(N)=O (Bz-[Arg(NO2)]-Leu-NH2) |  | 400 µM
CC[C@H](C)[C@H](NC(=O)[C@H](CC(C)C)NC(=O)[C@@H](N)CO)C(=O)NCC(=O)N[C@@H](CCCNC(=N)N)C(=O)N[C@@H](CC(C)C)C(N)=O (H-SLIGRL-NH2) |  | 4 µM
